Assay results: patent US20080021030A1, “Substituted Pyrazoles As Ppar Agonists” (priority 2003, published 2008)
Counter-ions that a name gives are not always drawn.

Columns and labels:
Assay in all cases: Transient transfection (transactivation) assay in CV-1 cells, GAL4-PPAR LBD chimera, SPAP reporter
Format in all cases: cell-based
hPPAR alpha = target: T1, hPPAR alpha (Homo sapiens, UniProt Q07869); conditions: read-out: EC50 μM HPPARα
T1 construct: expressed in transfected cells; host or cells: CV-1 cells
T1 sequence (Q07869 239-466 limits assumed): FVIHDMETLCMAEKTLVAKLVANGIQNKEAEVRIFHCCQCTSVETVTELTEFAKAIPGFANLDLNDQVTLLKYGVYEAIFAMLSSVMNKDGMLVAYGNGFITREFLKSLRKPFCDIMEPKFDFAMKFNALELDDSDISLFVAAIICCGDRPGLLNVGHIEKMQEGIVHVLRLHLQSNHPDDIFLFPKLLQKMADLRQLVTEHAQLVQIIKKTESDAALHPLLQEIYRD
Text: (§1) Compounds were screened for functional potency in transient transfection assays in CV-1 cells for their ability to activate the PPAR subtypes (transactivation assay). A previously established chimeric receptor system was utilized to allow comparison of the relative transcriptional activity of the receptor subtypes on the same target gene and to prevent endogenous receptor activation from complicating the interpretation of results. See, for example, Lehmann, J. M.; Moore, L. B.; Smith-Oliver, T. A.; Wilkison, W. O.; Willson, T. M.; Kliewer, S. A., An antidiabetic thiazolidinedione is a high affinity ligand for peroxisome proliferator-activated receptor gamma (PPARgamma), J. Biol. Chem., 270, 12953-6 (1995). The ligand binding domains for murine and human PPAR alpha, PPAR gamma, and PPAR delta were each fused to the yeast transcription factor GAL4 DNA binding domain. CV-1 cells were transiently transfected with expression vectors for the respective PPAR chimera along with a reporter construct containing five copies of the GAL4 DNA binding site driving expression of secreted placental alkaline phosphatase (SPAP) and beta-galactosidase. After 16 h, the medium was exchanged to DME medium supplemented with 10% delipidated fetal calf serum and the test compound at the appropriate concentration. After an additional 24 h, cell extracts were prepared and assayed for alkaline phosphatase and β-galactosidase activity. Alkaline phosphatase activity was corrected for transfection efficiency using the beta-galactosidase activity as an internal standard (see, for example, Kliewer, S. A., et. al. Cell 83, 813-819 (1995)). Rosiglitazone (BRL 49653) was used as a positive control in the hPPAR gamma assay. The positive control in the hPPAR alpha assays was 2-4-[2-(3-[4-fluorophenyl]-1-heptylureido)ethyl]-phenoxy-(2-methyl propionic acid (WO 97/36579). The positive control for PPAR delta assays was 2-{2-methyl-4-[({4-methyl-2-{trifluoromethyl)phenyl]-1,3-thiazol-5-yl}methyl)sulfanyl]phenoxy}acetic acid (WO 01/00603). The positive control was (5-{4-[2-(Methyl-pyridin-2-yl-amino)-ethoxy]-benzyl}-thiazolidine-2,4-dione (J. Med. Chem. 1994, 37(23), 3977), for PPAR gamma.
(§2) Activities in three hPPAR subtypes are reported in the table and are expressed in micromolar.

hPPAR delta = target: T2, hPPAR delta (Homo sapiens, UniProt Q03181); conditions: read-out: EC50 μM HPPARδ
T2 construct: expressed in transfected cells; host or cells: CV-1 cells
T2 sequence (Q03181 211-439 limits assumed): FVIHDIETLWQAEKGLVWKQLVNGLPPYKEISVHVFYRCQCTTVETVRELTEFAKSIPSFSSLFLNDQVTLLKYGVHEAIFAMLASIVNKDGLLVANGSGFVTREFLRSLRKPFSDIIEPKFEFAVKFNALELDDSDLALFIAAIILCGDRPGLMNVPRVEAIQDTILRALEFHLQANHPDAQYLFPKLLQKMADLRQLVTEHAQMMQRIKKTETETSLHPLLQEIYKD
Text: as §1, §2

hPPAR gamma = target: T3, hPPAR gamma (Homo sapiens, UniProt P37231); conditions: read-out: EC50 μM HPPARγ
T3 construct: expressed in transfected cells; host or cells: CV-1 cells
T3 sequence (P37231 238-503 limits assumed): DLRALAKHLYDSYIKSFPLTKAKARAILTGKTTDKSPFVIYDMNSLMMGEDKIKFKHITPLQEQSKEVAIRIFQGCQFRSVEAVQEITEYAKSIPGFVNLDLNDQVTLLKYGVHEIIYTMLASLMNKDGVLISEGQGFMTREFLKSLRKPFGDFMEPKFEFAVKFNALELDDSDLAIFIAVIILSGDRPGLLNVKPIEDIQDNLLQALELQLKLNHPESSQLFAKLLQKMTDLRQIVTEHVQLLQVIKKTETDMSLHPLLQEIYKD
Text: Compounds were screened for functional potency in transient transfection assays in CV-1 cells for their ability to activate the PPAR subtypes (transactivation assay). A previously established chimeric receptor system was utilized to allow comparison of the relative transcriptional activity of the receptor subtypes on the same target gene and to prevent endogenous receptor activation from complicating the interpretation of results. […] The ligand binding domains for murine and human PPAR alpha, PPAR gamma, and PPAR delta were each fused to the yeast transcription factor GAL4 DNA binding domain. CV-1 cells were transiently transfected with expression vectors for the respective PPAR chimera along with a reporter construct containing five copies of the GAL4 DNA binding site driving expression of secreted placental alkaline phosphatase (SPAP) and beta-galactosidase. After 16 h, the medium was exchanged to DME medium supplemented with 10% delipidated fetal calf serum and the test compound at the appropriate concentration. After an additional 24 h, cell extracts were prepared and assayed for alkaline phosphatase and β-galactosidase activity.

Structure (SMILES) | EC50 (hPPAR alpha) [µM] | EC50 (hPPAR delta) [µM] | EC50 (hPPAR gamma) [µM]
Cc1cc(CNC(=O)c2cc(-c3cccc(N4CCCCC4)c3)n(C)n2)ccc1OC(C)(C)C(=O)O [Example 40, 2-methyl-2-[(2-methyl-4-{[({1-methyl-5-[3-(1-piperidinyl)phenyl]-1H-pyrazol-3-yl}carbonyl)amino]methyl}phenyl)oxy]propanoic acid] | 0.293 | 5.59 | 0.187
Cc1cc(CNC(=O)c2cc(-c3ccc(N4CCCCC4)cc3)nn2C)ccc1OC(C)(C)C(=O)O [Example 45] | 0.836 | > 25 | 0.049
C=CCn1nc(-c2ccc(C(C)(C)C)cc2)cc1C(=O)NCc1ccc(OC(C)(C)C(=O)O)c(C)c1 [Example 47, 2-({4-[({[3-[4-(1,1-dimethylethyl)phenyl]-1-(2-propen-1-yl)-1H-pyrazol-5-yl]carbonyl}amino)methyl]-2-methylphenyl}oxy)-2-methylpropanoic acid] | 0.044 | 1.15 | 0.059
Cc1cc(CNC(=O)c2cc(-c3ccc(C(C)(C)C)cc3)n(Cc3ccccc3)n2)ccc1OC(C)(C)C(=O)O [Example 50, 2-({4-[({[5-[4-(1,1-dimethylethyl)phenyl]-1-(phenylmethyl)-1H-pyrazol-3-yl]carbonyl}amino)methyl]-2-methylphenyl}oxy)-2-methylpropanoic acid] | 0.204 | > 25 | 1.7
Cc1ccc(CNC(=O)c2cc(-c3ccc(C(C)(C)C)cc3)nn2CCc2ccccc2)cc1OC(C)(C)C(=O)O [Example 51, 2-({5-[({[3-[4-(1,1-dimethylethyl)phenyl]-1-(2-phenylethyl)-1H-pyrazol-5-yl]carbonyl}amino)methyl]-2-methylphenyl}oxy)-2-methylpropanoic acid] | 0.3 | > 25 | 0.14
Cc1cc(CNC(=O)c2cc(-c3ccc(C(C)(C)C)cc3)n(CCN3CCOCC3)n2)ccc1OC(C)(C)C(=O)O [Example 54, 2-[(4-{[({5-[4-(1,1-dimethylethyl)phenyl]-1-[2-(4-morpholinyl)ethyl]-1H-pyrazol-3-yl}carbonyl)amino]methyl}-2-methylphenyl)oxy]-2-methyl propanoic acid hydrochloride] | 0.571 | > 25 | > 25
C=CCn1nc(-c2ccc(C(C)(C)C)cc2)cc1C(=O)NCc1ccc(OC(C)(C)C(=O)O)cc1 [Example 60, 2-({4-[({[3-[4-(1,1-dimethylethyl)phenyl]-1-(2-propen-1-yl)-1H-pyrazol-5-yl]carbonyl}amino)methyl]phenyl}oxy)-2-methylpropanoic acid] | 0.192 | 5.93 | 1.38
Cc1cc(CNC(=O)c2cc(-c3ccc(C(C)(C)C)cc3)nn2Cc2ccccc2)ccc1OC(C)(C)C(=O)O [Example 61, 2-({4-[({[3-[4-(1,1-dimethylethyl)phenyl]-1-(phenylmethyl)-1H-pyrazol-5-yl]carbonyl}amino)methyl]-2-methylphenyl}oxy)-2-methylpropanoic acid] | 0.115 | 2.42 | 0.147

Further molecules by falling EC50 (hPPAR alpha), results first:

EC50 (hPPAR alpha) [µM] | EC50 (hPPAR delta) [µM] | EC50 (hPPAR gamma) [µM] | Structure (SMILES)
1.3 | > 25 | 0.006 | Cc1cc(CNC(=O)Cc2cc(-c3ccc(C(C)(C)C)cc3)n(C)n2)ccc1OC(C)(C)C(=O)O [Example 44, 2-[(4-{[({5-[4-(1,1-dimethylethyl)phenyl]-1-methyl-1H-pyrazol-3-yl}acetyl)amino]methyl}-2-methylphenyl)oxy]-2-methylpropanoic acid]
1.06 | > 25 | 1.04 | Cc1cc(CNC(=O)c2cc(-c3ccc(N4CCOCC4)cc3)nn2C)ccc1OC(C)(C)C(=O)O [Example 39, 2-methyl-2-[(2-methyl-4-{[({1-methyl-3-[4-(4-morpholinyl)phenyl]-1H-pyrazol-5-yl}carbonyl)amino]methyl}phenyl)oxy]propanoic acid]
0.504 | > 25 | 0.151 | Cc1cc(CNC(=O)c2cc(-c3cccc(N4CCCC4)c3)n(C)n2)ccc1OC(C)(C)C(=O)O [Example 41, 2-methyl-2-[(2-methyl-4-{[({1-methyl-5-[3-(1-pyrrolidinyl)phenyl]-1H-pyrazol-3-yl}carbonyl)amino]methyl}phenyl)oxy]propanoic acid]
0.444 | > 25 | 0.748 | Cc1cc(CNC(=O)c2cc(-c3ccc(C(C)(C)C)cc3)nn2CCN2CCOCC2)ccc1OC(C)(C)C(=O)O [Example 55, 2-[(4-{[({3-[4-(1,1-dimethylethyl)phenyl]-1-[2-(4-morpholinyl)ethyl]-1H-pyrazol-5-yl}carbonyl)amino]methyl}-2-methylphenyl)oxy]-2-methyl propanoic acid]
0.294 | > 25 | 0.353 | Cc1cc(CNC(=O)c2cc(Cc3ccc(C(C)(C)C)cc3)nn2C)ccc1OC(C)(C)C(=O)O [Example 46, 2-{[4-({[(3-{[4-(1,1-dimethylethyl)phenyl]methyl}-1-methyl-1H-pyrazol-5-yl)carbonyl]amino}methyl)-2-methylphenyl]oxy}-2-methylpropanoic acid]
0.293 | > 25 | 1.66 | Cc1cc(CNC(=O)c2cc(-c3cccc(N4CCCCC4)c3)nn2C)ccc1OC(C)(C)C(=O)O [Example 42, 2-methyl-2-{2-methyl-4-[({[1-methyl-3-(3-piperidin-1-ylphenyl)-1H-pyrazol-5-yl]carbonyl}amino)methyl]phenoxy}propanoic acid]
0.257 | > 25 | 0.138 | Cc1cc(CNC(=O)Cc2cc(-c3ccc(C(C)(C)C)cc3)nn2C)ccc1OC(C)(C)C(=O)O [Example 43, 2-[(4-{[({3-[4-(1,1-dimethylethyl)phenyl]-1-methyl-1H-pyrazol-5-yl}acetyl)amino]methyl}-2-methylphenyl)oxy]-2-methylpropanoic acid]
0.093 | > 25 | 0.026 | Cc1cc(CNC(=O)c2cc(-c3ccc(-c4ccccc4C)cc3)n(C)n2)ccc1OC(C)(C)C(=O)O [Example 31, 2-methyl-2-(2-methyl-4-[({[1-methyl-5-(2′-methylbiphenyl-4-yl)-1H-pyrazol-3-yl]carbonyl}amino)methyl]phenoxy}propanoic acid]
0.029 | > 25 | 0.014 | CCCCc1ccc(-c2cc(C(=O)NCc3ccc(OC(C)(C)C(=O)O)c(C)c3)nn2C)cc1 [Example 29, 2-((4-[({[5-(4-butylphenyl)-1-methyl-1H-pyrazol-3-yl]carbonyl}amino)methyl]-2-methylphenyl}oxy)-2-methylpropanoic acid]
